# Results from PMC4641453 (Science translational medicine, 2015).
# Like-named read-outs stand apart in the source and are kept apart here.
# Legend:
# S. pneumoniae isolates = type: cell-based; conditions: Streptococcus pneumoniae
# [1] = test system: Neisseria gonorrhoeae (ATCC 49226); type: cell-based; conditions: 40 μg of compound on 6 mm disc; range of two experiments
# [2] = test system: Enterococcus faecalis (ATCC 33186); test: microbe, parasite or virus in culture; type: cell-based; conditions: ATCC33186, read-out: MIC Ef
# [3] = test system: Listeria monocytogenes (NS512); test: microbe, parasite or virus in culture; type: cell-based
# [4] = test system: Legionella pneumophila (ATCC 33153); test: microbe, parasite or virus in culture; type: cell-based
# [5] = test system: S. pneumoniae strain D39x; test: Mouse intranasal pneumococcal challenge, pneumonia and bacteremia; type: in vivo, mice
# [6] = rat, in vivo, 10 mg/kg; cited from earlier work
# [7] = test system: MRSA, Staphylococcus aureus (NRS70); test: microbe, parasite or virus in culture; type: cell-based; conditions: MRSA|NRS70, read-out: MIC MRSA
# [8] = mean (% CV); cited from earlier work
# [9] = test system: Streptococcus pyogenes (ATCC 700294); test: microbe, parasite or virus in culture; type: cell-based; conditions: ATCC700294, read-out: MIC Spy
# [10] = test system: Streptococcus pneumoniae (R6); test: microbe, parasite or virus in culture; type: cell-based; conditions: read-out: MIC Spn
# [11] = test system: Streptococcus pneumoniae mutants resistant to compound 1; test: In vitro generation and MIC testing of compound 1 resistant mutants; type: cell-based; conditions: fifteen compound 1 resistant S. pneumoniae clones (RpsE G27R)
# [12] = test system: Moraxella catarrhalis (ATCC 25238); test: microbe, parasite or virus in culture; type: cell-based; conditions: ATCC25238, read-out: MIC Moraxella catarrhalis
# [13] = test system: Neisseria meningitidis (ATCC 13077); test: microbe, parasite or virus in culture; type: cell-based; conditions: ATCC13077, read-out: Zone of inhibition Nm
# [14] = test system: Chlamydia trachomatis serovar L2 (strain 434/Bu); test: Chlamydial susceptibility testing in infected HeLa 229 monolayers; conditions: up to 100 μg/mL, C. trachomatis-infected monolayers
# [15] = type: physicochemical; conditions: pH 7
# [16] = test system: Haemophilus influenzae (ATCC 49247); test: microbe, parasite or virus in culture; type: cell-based; conditions: ATCC49247, read-out: Zone of inhibition Hi
# [17] = test system: Bacillus subtilis (ATCC 23857); test: microbe, parasite or virus in culture; type: cell-based; conditions: ATCC23857, read-out: MIC Bs
# [18] = test system: S. pneumoniae strain TIGR4; test: Mouse intranasal pneumococcal challenge, bacteremia and meningitis; type: in vivo, mice; conditions: 5 mg/kg from 18 hours after intranasal challenge
# [19] = test system: MSSA, Staphylococcus aureus (ATCC 29213); test: microbe, parasite or virus in culture; type: cell-based; conditions: ATCC29213|MSSA, read-out: MIC MSSA
# [20] = ATCC700904, read-out: MIC ATCC700904
smiles,measurement,setting,value
CC1(C)S[C@@H]2[C@H](NC(=O)Cc3ccccc3)C(=O)N2[C@H]1C(=O)O [Penicillin G],MIC,S. pneumoniae isolates; [20],> 2 µg/mL
same,MIC,S. pneumoniae isolates; read-out: MIC 8249,> 2 µg/mL
same,MIC,S. pneumoniae isolates; read-out: MIC A66.1x,≤ 0.2 µg/mL
same,MIC,S. pneumoniae isolates; read-out: MIC BAA-1407,2 µg/mL
same,MIC,S. pneumoniae isolates; read-out: MIC BHN97x,≤ 0.2 µg/mL
same,MIC,S. pneumoniae isolates; read-out: MIC D39X,≤ 0.2 µg/mL
same,MIC,S. pneumoniae isolates; read-out: MIC Daw7,3 µg/mL
same,MIC,S. pneumoniae isolates; read-out: MIC Daw8,3 µg/mL
same,MIC,S. pneumoniae isolates; read-out: MIC Daw9,2 µg/mL
same,MIC,S. pneumoniae isolates; read-out: MIC Daw19,3 µg/mL
same,MIC,S. pneumoniae isolates; read-out: MIC Daw26,3 µg/mL
same,MIC,S. pneumoniae isolates; read-out: MIC Daw27,3 µg/mL
same,MIC,S. pneumoniae isolates; read-out: MIC Daw47,3 µg/mL
same,MIC,S. pneumoniae isolates; read-out: MIC Daw62,3 µg/mL
same,MIC,S. pneumoniae isolates; read-out: MIC Daw64,2 µg/mL
same,MIC,S. pneumoniae isolates; read-out: MIC OVA2,≤ 0.2 µg/mL
same,MIC,S. pneumoniae isolates; read-out: MIC R6,≤ 0.2 µg/mL
same,MIC,S. pneumoniae isolates; read-out: MIC T4X,≤ 0.2 µg/mL
[H]/N=C(/N)N[C@H]1[C@H](O)[C@@H](O)[C@H](O[C@@H]2O[C@@H](C)[C@](O)(C=O)[C@H]2O[C@@H]2O[C@@H](CO)[C@H](O)[C@@H](O)[C@@H]2NC)[C@@H](N/C(N)=N\[H])[C@@H]1O [Streptomycin],MIC,S. pneumoniae isolates; [20],> 200 µg/mL
same,MIC,S. pneumoniae isolates; read-out: MIC 8249,> 200 µg/mL
same,MIC,S. pneumoniae isolates; read-out: MIC A66.1x,13 µg/mL
same,MIC,S. pneumoniae isolates; read-out: MIC BAA-1407,50 µg/mL
same,MIC,S. pneumoniae isolates; read-out: MIC BHN97x,13 µg/mL
same,MIC,S. pneumoniae isolates; read-out: MIC D39X,13 µg/mL
same,MIC,S. pneumoniae isolates; read-out: MIC Daw7,25 µg/mL
same,MIC,S. pneumoniae isolates; read-out: MIC Daw8,25 µg/mL
same,MIC,S. pneumoniae isolates; read-out: MIC Daw9,> 200 µg/mL
same,MIC,S. pneumoniae isolates; read-out: MIC Daw62,25 µg/mL
same,MIC,S. pneumoniae isolates; read-out: MIC Daw64,25 µg/mL
same,MIC,S. pneumoniae isolates; read-out: MIC OVA2,13 µg/mL
same,MIC,S. pneumoniae isolates; read-out: MIC R6,13 µg/mL
same,MIC,S. pneumoniae isolates; read-out: MIC T4X,6 µg/mL
CO/N=C(\C(=O)N[C@@H]1C(=O)N2C(C(=O)O)=C(COC(C)=O)CS[C@H]12)c1csc(N)n1 [Cefotaxime],MIC,S. pneumoniae isolates; [20],0.2 µg/mL
same,MIC,S. pneumoniae isolates; read-out: MIC 8249,3 µg/mL
same,MIC,S. pneumoniae isolates; read-out: MIC Daw19,1 µg/mL
same,MIC,S. pneumoniae isolates; read-out: MIC Daw26,3 µg/mL
same,MIC,S. pneumoniae isolates; read-out: MIC Daw47,3 µg/mL
"CN[C@@H]1[C@H](O)[C@H](NC)[C@H]2O[C@@]3(O)C(=O)C[C@@H](C)O[C@H]3O[C@@H]2[C@H]1O [Spectinomycin, spectinomycin]",Zone of inhibition Ng,[1],10–11.5 mm
same,MIC,[2],100 µg/mL
same,MIC,"[3]; Listeria monocytogenes, read-out: MIC Lm",50 µg/mL
same,MIC Lm,"[3]; NS512, range of two independent experiments",50 µg/mL
same,Zone of inhibition Lp,"[4]; 40 μg of compound on 6 mm disc, 48 hours, range of two experiments",completely inactive
same,zone of inhibition at 40 µg/disc,"[4]; Legionella pneumophila, ATCC33153, 48 h, read-out: Zone of inhibition Lp",0 mm
same,Survival of infected mice,"[5]; 5 mg/kg BID subcutaneous from 18 hours post challenge, D39x, n=5",died or were humanely euthanized by 120 hours post challenge
same,Bioluminescent imaging of infection,"[5]; 72 hours post challenge, 5 mg/kg BID",systemic bacterial infection
same,IV Pharmacokinetics CL,[6],0.60 (11.5) L/hr/Kg
same,IV Pharmacokinetics T1/2,[6],0.75 (49.3) hr
same,IV Pharmacokinetics Vd,[6],0.76 (45.2) L/Kg
same,IV Pharmacokinetics fe (fraction excreted unchanged in urine),[6],0.55 (27.0)
same,MIC,[7],> 200 µg/mL
same,Microsomal Stability t1/2,[8],6.43 (0.13) hr
same,MIC,[9],25 µg/mL
same,MIC,[10],12.5 µg/mL
same,MIC against resistant clones,[11],weakly susceptible
same,MIC,[12],6 µg/mL
same,zone of inhibition at 40 µg/disc,[13],13 to 15 mm
same,Reduction of intracellular inclusions,[14],failed to reduce intracellular inclusions
same,Chemical stability (percent of parent over time),[15],continuously declined over time
same,zone of inhibition at 40 µg/disc,[16],12 mm
same,MIC,[17],12.5 µg/mL
same,Survival of infected mice,[18],did not survive beyond 96 hours
same,MIC,S. pneumoniae isolates; [20],25 µg/mL
same,MIC,S. pneumoniae isolates; read-out: MIC 8249,25 µg/mL
same,MIC,S. pneumoniae isolates; read-out: MIC A66.1x,6 µg/mL
same,MIC,S. pneumoniae isolates; read-out: MIC BAA-1407,13 µg/mL
same,MIC,S. pneumoniae isolates; read-out: MIC BHN97x,6 µg/mL
same,MIC,S. pneumoniae isolates; read-out: MIC D39X,13 µg/mL
same,MIC,S. pneumoniae isolates; read-out: MIC Daw7,25 µg/mL
same,MIC,S. pneumoniae isolates; read-out: MIC Daw8,25 µg/mL
same,MIC,S. pneumoniae isolates; read-out: MIC Daw9,13 µg/mL
same,MIC,S. pneumoniae isolates; read-out: MIC Daw19,25 µg/mL
same,MIC,S. pneumoniae isolates; read-out: MIC Daw26,50 µg/mL
same,MIC,S. pneumoniae isolates; read-out: MIC Daw27,25 µg/mL
same,MIC,S. pneumoniae isolates; read-out: MIC Daw47,25 µg/mL
same,MIC,S. pneumoniae isolates; read-out: MIC Daw62,25 µg/mL
same,MIC,S. pneumoniae isolates; read-out: MIC Daw64,25 µg/mL
same,MIC,S. pneumoniae isolates; read-out: MIC OVA2,13 µg/mL
same,MIC,S. pneumoniae isolates; read-out: MIC R6,13 µg/mL
same,MIC,S. pneumoniae isolates; read-out: MIC T4X,13 µg/mL
same,MIC,[19],100 µg/mL
CC1(C)S[C@@H]2[C@H](NC(=O)[C@H](N)c3ccccc3)C(=O)N2[C@H]1C(=O)O [ampicillin],"Survival of infected mice, 9 day experiment",[5]; matched doses 2.5 or 5 mg/kg,all survived
same,Reduction of bacterial titers,"[5]; within 48 hours post infection, 2.5 or 5 mg/kg",more than 3 logs
CC[C@H]1OC(=O)[C@H](C)[C@@H](O[C@H]2C[C@@](C)(OC)[C@@H](O)[C@H](C)O2)[C@H](C)[C@@H](O[C@@H]2O[C@H](C)C[C@H](N(C)C)[C@H]2O)[C@](C)(O)C[C@@H](C)C(=O)[C@H](C)[C@@H](O)[C@]1(C)O [Erythromycin],MIC,S. pneumoniae isolates; [20],2 µg/mL
same,MIC,S. pneumoniae isolates; read-out: MIC 8249,> 2 µg/mL
same,MIC,S. pneumoniae isolates; read-out: MIC BAA-1407,50 µg/mL
same,MIC,S. pneumoniae isolates; read-out: MIC Daw7,≤ 0.2 µg/mL
same,MIC,S. pneumoniae isolates; read-out: MIC Daw8,≤ 0.2 µg/mL
same,MIC,S. pneumoniae isolates; read-out: MIC Daw9,2 µg/mL
same,MIC,S. pneumoniae isolates; read-out: MIC Daw19,1 µg/mL
same,MIC,S. pneumoniae isolates; read-out: MIC Daw26,0.1 µg/mL
same,MIC,S. pneumoniae isolates; read-out: MIC Daw27,1 µg/mL
same,MIC,S. pneumoniae isolates; read-out: MIC Daw47,0.03 µg/mL
same,MIC,S. pneumoniae isolates; read-out: MIC Daw62,≤ 0.2 µg/mL
same,MIC,S. pneumoniae isolates; read-out: MIC Daw64,≤ 0.2 µg/mL
same,MIC,S. pneumoniae isolates; read-out: MIC OVA2,1 µg/mL
same,MIC,S. pneumoniae isolates; read-out: MIC R6,≤ 0.2 µg/mL
